Reference: US20250282757A1, “ARYL ETHER-SUBSTITUTED HETEROCYCLIC COMPOUNDS AS GLP1R AGONISTS” (MINDRANK AI LTD., priority 2021, published 2025)

Molecular target: GLP-1R (Homo sapiens, UniProt P43220)
Experiment: Agonist activity on GLP-1R, HTRF cAMP detection in stably transfected GLP-1R/HEK293 cells
Format: cell-based
Details: for EC50: 30 min incubation; for Max activity: relative to top concentration of reference GLP-1(7-37)
Protocol: Detection of Agonist Activity of the Test Compounds on GLP-1R
• 1) The test compound was dissolved in DMSO and diluted 4-fold with Bravo for a total of 10 concentration gradients (the starting concentration was 1 mM). […] HBSS (10 mL) pre-warmed at 37° C. was added, mixed gently, and centrifuged at 1000 rpm for 5 minutes. The supernatant was discarded and another 10 mL of […] was added and mixed gently. […] The plate was shaken to mix at 2000 rpm for 60 seconds. • 7) The cells in the 384-well plate were incubated in CO2 cell incubator at 37° C. for 30 min. • 8) 10 μL of HTRF cAMP detection solution was added to the 384-well plate, stick with sealing film, and incubated at room temperature for 1 hour. • 9) After 1 hour of incubation, the sealing film was removed. The plate was put into the EnVision microplate reader to read the values of OD665 nm and OD615 nm.

Sequence of GLP-1R (P43220 24-463): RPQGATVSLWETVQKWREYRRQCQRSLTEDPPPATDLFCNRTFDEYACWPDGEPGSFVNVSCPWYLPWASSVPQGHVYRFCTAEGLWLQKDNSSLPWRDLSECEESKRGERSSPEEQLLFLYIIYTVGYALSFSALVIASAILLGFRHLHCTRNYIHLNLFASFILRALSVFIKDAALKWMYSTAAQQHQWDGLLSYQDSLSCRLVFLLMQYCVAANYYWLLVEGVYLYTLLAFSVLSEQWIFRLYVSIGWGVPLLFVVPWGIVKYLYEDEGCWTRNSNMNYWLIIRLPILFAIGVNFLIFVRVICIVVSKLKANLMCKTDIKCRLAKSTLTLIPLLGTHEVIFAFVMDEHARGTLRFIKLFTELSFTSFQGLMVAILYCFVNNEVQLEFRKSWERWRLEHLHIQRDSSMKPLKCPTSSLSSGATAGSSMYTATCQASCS

SMILES | EC50 [nM] | Max activity [%]
CCn1cncc1Cn1c(CN2CCC(Oc3ccc(F)c(OCc4ccc(Cl)cc4F)n3)CC2)nc2ccc(C(=O)O)cc21 [Compound C11, 2-((4-((6-((4-chloro-2-fluorobenzyl)oxy)-5-fluoropyridin-2-yl)oxy)piperidin-1-yl)methyl)-1-((1-ethyl-1H-imidazol-5-yl)methyl)-1H-benzo[d]imidazole-6-carboxylic acid] | 1.48 | 114.8
CCn1cncc1Cn1c(CN2CCC(Oc3cccc(CSc4ccc(C#N)cc4F)n3)CC2)nc2ccc(C(=O)O)cc21 [Compound C12, 2-((4-((6-(((4-cyano-2-fluorophenyl)thio)methyl)pyridin-2-yl)oxy)piperidin-1-yl)methyl)-1-((1-ethyl-1H-imidazol-5-yl)methyl)-1H-benzo[d]imidazole-6-carboxylic acid] | 0.233 | 125.5
N#CCC1(Cn2c(CN3CCC(Oc4cccc(CSc5ccc(C#N)cc5F)n4)CC3)nc3ccc(C(=O)O)cc32)CC1 [Compound C13, 2-((4-((6-(((4-cyano-2-fluorophenyl)thio)methyl)pyridin-2-yl)oxy)piperidin-1-yl)methyl)-1-((1-(cyanomethyl)cyclopropyl)methyl)-1H-benzo[d]imidazole-6-carboxylic acid] | 1.82 | 141.7
C#Cc1ccc(OCc2cccc(OC3CCN(Cc4nc5ccc(C(=O)O)cc5n4Cc4cncn4CC)CC3)n2)c(F)c1 [Compound C14] | 0.315 | 101.9
C#Cc1ccc(OCc2cccc(OC3CCN(Cc4nc5ccc(C(=O)O)cc5n4C[C@@H]4CCO4)CC3)n2)c(F)c1 [Compound C15, (S)-2-((4-((6-((4-ethynyl-2-fluorophenoxy)methyl)pyridin-2-yl)oxy)piperidin-1-yl)methyl)-1-(oxetan-2-ylmethyl)-1H-benzo[d]imidazole-6-carboxylic acid] | 0.807 | 109.1
N#Cc1ccc(OCc2cccc(NC3CCN(Cc4nc5ccc(C(=O)O)cc5n4C[C@@H]4CCO4)CC3)n2)c(F)c1 [Compound C16, (S)-2-((4-((6-((4-cyano-2-fluorophenoxy)methyl)pyridin-2-yl)amino)piperidin-1-yl)methyl)-1-(oxetan-2-ylmethyl)-1H-benzo[d]imidazole-6-carboxylic acid] | 2.54 | 99.2
CCn1cncc1Cn1c(CN2CCC(Nc3cccc(COc4ccc(C#N)cc4F)n3)CC2)nc2ccc(C(=O)O)cc21 [Compound C17, 2-((4-((6-((4-cyano-2-fluorophenoxy)methyl)pyridin-2-yl)amino)piperidin-1-yl)methyl)-1-((1-ethyl-1H-imidazol-5-yl)methyl)-1H-benzo[d]imidazole-6-carboxylic acid] | 0.668 | 127.7
O=C(O)c1ccc2nc(CN3CCC(Oc4cccc(COc5ccc(Br)cc5F)n4)CC3)n(Cc3cncn3CC3CC3)c2c1 [Compound C19, 2-((4-((6-((4-bromo-2-fluorophenoxy)methyl)pyridin-2-yl)oxy)piperidin-1-yl)methyl)-1-((1-(cyclopropylmethyl)-1H-imidazol-5-yl)methyl)-1H-benzo[d]imidazole-6-carboxylicacid] | 1.07 | 134.3
N#Cc1ccc(OCc2cccc(OC3CCN(Cc4nc5ccc(C(=O)O)cc5n4Cc4cncn4CC4CC4)CC3)c2)c(F)c1 [Compound C20, 2-((4-(3-((4-cyano-2-fluorophenoxy)methyl)phenoxy)piperidin-1-yl)methyl)-1-((1-(cyclopropylmethyl)-1H-imidazol-5-yl)methyl)-1H-benzo[d]imidazole-6-carboxylic acid] | 0.425 | 137.0
Cn1c(CN2CCC(Oc3cccc(COc4ccc(Cl)cc4F)n3)CC2)nc2ccc(C(=O)O)cc21 [Compound C22, 2-((4-((6-((4-chloro-2-fluorophenoxy)methyl)pyridin-2-yl)oxy)piperidin-1-yl)methyl)-1-methyl-1H-benzo[d]imidazole-6-carboxylic acid] | 30.4 | –
CCn1cncc1Cn1c(Cc2ccc(Oc3cccc(COc4ccc(Cl)cc4F)n3)cc2)nc2ccc(C(=O)O)cc21 [Compound C24, 2-(4-((6-((4-chloro-2-fluorophenoxy)methyl)pyridin-2-yl)oxy)benzyl)-1-((1-ethyl-1H-imidazole-5-yl)methyl)-1H-benzo[d]imidazole-6-carboxylic acid] | 1.67 | 76.88
C#Cc1ccc(OCc2cccc(OC3CCN(Cc4nc5ccc(C(=O)O)cc5n4CC4(CC#N)CC4)CC3)n2)c(F)c1 [Compound C25, 1-((1-(cyanomethyl)cyclopropyl)methyl)-2-((4-((6-((4-ethynyl-2-fluorophenoxy)-methyl)pyridine-2-yl)oxy)piperidin-1-yl)methyl)-1H-benzo[d]imidazole-6-carboxylic acid] | 0.512 | 133.4
N#CCC1(Cn2c(CN3CCC(Oc4cccc(COc5ccc(Br)cc5F)n4)CC3)nc3ccc(C(=O)O)cc32)CC1 [Compound C26, 2-((4-((6-((4-bromo-2-fluorophenoxy)methyl)pyridin-2-yl)oxy)piperidin-1-yl)methyl)-1-((1-(cyanomethyl)cyclopropyl)methyl)-1H-benzo[d]imidazole-6-carboxylic acid] | 0.215 | 117.3
N#Cc1ccc(OCc2cccc(Oc3ccc(Cc4nc5ccc(C(=O)O)cc5n4C[C@@H]4CCO4)cc3)n2)c(F)c1 [Compound C27, (S)-2-(4-((6-((4-cyano-2-fluorophenoxy)methyl)pyridin-2-yl)oxy)benzyl)-1-(oxetan-2-ylmethyl)-1H-benzo[d]imidazole-6-carboxylic acid] | 8.03 | –
CCn1cncc1Cn1c(Cc2ccc(Oc3cccc(COc4ccc(C#N)cc4F)n3)cc2)nc2ccc(C(=O)O)cc21 [Compound C28, 2-(4-((6-((4-cyano-2-fluorophenoxy)methyl)pyridin-2-yl)oxy)benzyl)-1-((1-ethyl-1H-imidazol-5-yl)methyl)-1H-benzo[d]imidazole-6-carboxylic acid] | 5.05 | –
C#Cc1ccc(OCc2cccc(OC3CCN(Cc4nc5ccc(C(=O)O)cc5n4Cc4cncn4C(C)C)CC3)c2)c(F)c1 [Compound C29, 2-((4-(3-((4-ethynyl-2-fluorophenoxy)methyl)phenoxy)piperidin-1-yl)methyl)-1-((1-isopropyl-1H-imidazol-5-yl)methyl)-1H-benzo[d]imidazole-6-carboxylic acid] | 6.83 | 121.6
CC(C)n1cncc1Cn1c(CN2CCC(Oc3cccc(COc4ccc(Br)cc4F)c3)CC2)nc2ccc(C(=O)O)cc21 [Compound C30, 2-((4-(3-((4-bromo-2-fluorophenoxy)methyl)phenoxy)piperidin-1-yl)methyl)-1-((1-isopropyl-1H-imidazol-5-yl)methyl)-1H-benzo[d]imidazole-6-carboxylic acid] | 5.85 | 121.2
CC(C)n1cncc1Cn1c(CN2CCC(Oc3cccc(COc4ccc(C#N)cc4F)n3)CC2)nc2ccc(C(=O)O)cc21 [Compound C31, 2-((4-((6-((4-cyano-2-fluorophenoxy)methyl)pyridin-2-yl)oxy)piperidin-1-yl)methyl)-1-((1-isopropyl-1H-imidazol-5-yl)methyl)-1H-benzo[d]imidazole-6-carboxylic acid] | 0.833 | 106.6
CC(C)n1cncc1Cn1c(CN2CCC(Oc3cccc(COc4ccc(C#N)cc4F)c3)CC2)nc2ccc(C(=O)O)cc21 [Compound C32] | 0.768 | 114.3
N#Cc1ccc(OCc2cccc(OC3CCN(Cc4nc5ccc(C(=O)O)cc5n4Cc4cncn4CC4CC4)CC3)n2)c(F)c1 [Compound C33, 2-((4-((6-((4-cyano-2-fluorophenoxy)methyl)pyridin-2-yl)oxy)piperidin-1-yl)methyl)-1-((1-(cyclopropylmethyl)-1H-imidazol-5-yl)methyl)-1H-benzo[d]imidazole-6-carboxylic acid] | 0.068 | 99.1
CCN1C(=O)CCC1Cn1c(CN2CCC(Oc3cccc(COc4ccc(C#N)cc4F)n3)CC2)nc2ccc(C(=O)O)cc21 (centres unmarked) [Compound C34, 2-((4-((6-((4-cyano-2-fluorophenoxy)methyl)pyridin-2-yl)oxy)piperidin-1-yl)methyl)-1-((1-ethyl-5-oxopyrrolidin-2-yl)methyl)-1H-benzo[d]imidazole-6-carboxylic acid] | 11 | 113.6
CCN1CCC[C@H]1Cn1c(CN2CCC(Oc3cccc(COc4ccc(C#N)cc4F)n3)CC2)nc2ccc(C(=O)O)cc21 [Compound C35, (S)-2-((4-((6-((4-cyano-2-fluorophenoxy)methyl)pyridin-2-yl)oxy)piperidin-1-yl)methyl)-1-((1-ethylpyrrolidin-2-yl)methyl)-1H-benzo[d]imidazole-6-carboxylic acid] | > 100 | –
Cc1cc(C(=O)O)cc2c1nc(CN1CCC(Oc3cccc(COc4ccc(C#N)cc4F)c3)CC1)n2C[C@@H]1CCO1 [Compound C36] | 3.92 | 104.0
CCn1cncc1Cn1c(CN2CCC(Sc3cccc(COc4ccc(C#N)cc4F)n3)CC2)nc2ccc(C(=O)O)cc21 [Compound C37, 2-((4-((6-((4-cyano-2-fluorophenoxy)methyl)pyridin-2-yl)thio)piperidin-1-yl)methyl)-1-((1-ethyl-1H-imidazol-5-yl)methyl)-1H-benzo[d]imidazole-6-carboxylic acid] | 0.223 | 121.0
